± gives the standard deviation of the averaged measurements.
Key:
[1] = system: STS26T; test: % inhibition of CellTiter-Glo viability at highest tested concentration (72 h), relative to DMSO and benzethonium chloride controls; higher = more inhibition
Method in brief: (§1)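 Viability of MPNST cell lines and primary human Schwann cells was read as CellTiter-Glo ATP luminescence after 72 h at 37 °C, 5% CO2, in 384-well plates seeded with 750–1000 cells per well. Each compound had been preprinted at five concentrations in 10-fold steps. Signals were scaled between vehicle and positive-control wells, duplicates averaged where present, and fitted with four-parameter logistic curves. Drug sensitivity score and relative IC50 (censored at the top concentration) come from those fits, and percent inhibition is taken at the top concentration.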

[2] = system: HSC1 (primary human Schwann cells); test: as above
Method in brief: as §1

[3] = system: S1507-2; test: as above
Method in brief: as §1

[4] = system: ST8814; test: as above
Method in brief: as §1

[5] = system: YST-1; test: as above
Method in brief: as §1

[6] = system: S462; test: as above
Method in brief: as §1

[7] = system: HS-Sch-2; test: as above
Method in brief: as §1

[8] = system: HS-PSS; test: as above
Method in brief: as §1

[9] = system: HSC2 (primary human Schwann cells); test: as above
Method in brief: as §1

[10] = system: STS26T; test: drug sensitivity score (DSS, CellTox-Green cytotoxicity, 72 h) (DSS (dimensionless)); higher = more cytotoxic; extreme values may be limits of the assay
Method in brief: (§2)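 MPNST cell lines and primary human Schwann cells were grown for 72 h at 37 °C in 384-well plates containing five 10-fold compound dilutions. CellTox-Green, added before seeding at a final 1:1000 dilution, gave fluorescence from DNA released by disrupted cells, and signals were scaled to vehicle and positive-control wells. Curves were fitted with a four-parameter logistic model. Drug sensitivity score and relative IC50 come from these fits, with IC50 censored at the top concentration.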

[11] = system: HSC1 (primary human Schwann cells); test: as above
Method in brief: as §2

[12] = system: S1507-2; test: as above
Method in brief: as §2

[13] = system: ST8814; test: as above
Method in brief: as §2

[14] = system: HS-PSS; test: as above
Method in brief: as §2

[15] = system: HSC2 (primary human Schwann cells); test: as above
Method in brief: as §2

[16] = system: STS26T; test: drug sensitivity score (DSS, CellTiter-Glo viability, 72 h) (DSS (dimensionless)); higher = more sensitive; extreme values may be limits of the assay
Method in brief: as §1

[17] = system: HSC1 (primary human Schwann cells); test: as above
Method in brief: as §1

[18] = system: S1507-2; test: as above
Method in brief: as §1

[19] = system: ST8814; test: as above
Method in brief: as §1

[20] = system: YST-1; test: as above
Method in brief: as §1

[21] = system: S462; test: as above
Method in brief: as §1

[22] = system: HS-Sch-2; test: as above
Method in brief: as §1

[23] = system: HS-PSS; test: as above
Method in brief: as §1

[24] = system: HSC2 (primary human Schwann cells); test: as above
Method in brief: as §1

SMILES	% inhibition [1]	% inhibition [2]	% inhibition [3]	% inhibition [4]	% inhibition [5]	% inhibition [6]	% inhibition [7]	% inhibition [8]	% inhibition [9]	drug sensitivity score [10]	drug sensitivity score [11]	drug sensitivity score [12]	drug sensitivity score [13]	drug sensitivity score [14]	drug sensitivity score [15]	drug sensitivity score [16]	drug sensitivity score [17]	drug sensitivity score [18]	drug sensitivity score [19]	drug sensitivity score [20]	drug sensitivity score [21]	drug sensitivity score [22]	drug sensitivity score [23]	drug sensitivity score [24]
C=C1C[C@@H]2[C@H](CC[C@]3(C)C(=O)CC[C@@H]23)[C@@]2(C)C=CC(=O)C=C12 [Exemestane] (max concentration tested 10000 nM)	9.39%	3.19%	12 ± 1.6%	5.32%	-11.7%	22.1 ± 2%	22.9%	26.7%	6.18%	0	0	0	0	0	0	0	0	0.225 ± 0.26	0	0	0.804 ± 0.28	0.78	1.87	0
OC[C@H]1O[C@@H](n2cnc3c2N=CNC[C@H]3O)C[C@@H]1O [Pentostatin] (max concentration tested 10000 nM)	-3.81%	4.07%	-4.44 ± 9.6%	-0.684%	9.08%	-16.1 ± 7.5%	8.51%	6.06%	0.65%	0	0	0	0	0	0	0	0	0	0	1.08	0	0	0	0
O=C(O)CC[C@H]1CC[C@@](c2cc(F)ccc2F)(S(=O)(=O)c2ccc(Cl)cc2)CC1 [MK-0752] (max concentration tested 1000 nM)	4.15%	13.4%	-8.17 ± 8.2%	-3.6%	4.12%	6.43 ± 3.5%	10.9%	5.19%	15.4%	0	0	0.0001 ± 0.00014	0	0	0	0	1.49	0	0	0	0	0	0	1.16
COc1cc2c(cc1-c1c(C)noc1C)ncc1[nH]c(=O)n([C@H](C)c3ccccn3)c12 [I-BET151] (max concentration tested 10000 nM)	39.3%	63.4%	80.9 ± 2.5%	69.7%	63.4%	54.1 ± 0.65%	69.1%	58.5%	67.2%	0	0.0349	6.26 ± 2.9	3.3	0	0	3.63	7.53	8.57 ± 0.91	7.98	7.27	5.52 ± 1.1	7.97	5.14	7.44
C[C@]12C=CC(=O)C=C1CC[C@@H]1[C@@H]2[C@@H](O)C[C@@]2(C)[C@H]1CC[C@]2(O)C(=O)CO [Prednisolone] (max concentration tested 10000 nM)	3.25%	6.78%	11.2 ± 15%	15.6%	12%	-0.231 ± 7%	6%	-16.2%	-7.75%	0	0	0	0	0	0	0	0	0.89 ± 1.3	3.88	0.25	0	0	0	0
CCCCCCCCc1ccc(CCC(N)(CO)CO)cc1 [Fingolimod] (max concentration tested 10000 nM)	102%	103%	103 ± 2.5%	103%	101%	101.6 ± 0.59%	101%	101%	101%	4.94	8.13	13.3 ± 9.3	5.09	5.38	7.44	6.58	7.62	7.98 ± 1	6.27	5.97	5.79 ± 0.46	6.87	8.31	7.17
Cn1cncc1[C@@](N)(c1ccc(Cl)cc1)c1ccc2c(c1)c(-c1cccc(Cl)c1)cc(=O)n2C [Tipifarnib] (max concentration tested 10000 nM)	87.3%	69.7%	64.095 ± 0.013%	59.9%	73.1%	75.3 ± 2%	78%	46.5%	66.7%	9.1	0.209	0	0	0	0	14	6.55	14.3 ± 0.82	8.98	13.9	10.58 ± 0.032	7.08	5.39	8.8
CC[C@H](CO)Nc1nc(NCc2ccccc2)c2ncn(C(C)C)c2n1 [Seliciclib] (max concentration tested 10000 nM)	23.2%	22.5%	-2.22 ± 4.7%	5.24%	5.74%	32.2 ± 3.6%	22.6%	30.8%	34.7%	0	0	0	0	0.1	0	0.759	0.597	0	0	0	1.26 ± 0.44	0.52	2.39	1.23

Reference: the supplement of paper PMC5579334
